Laboratory results published in patent publication US11584733B2, “Selective histone deacetylase inhibitors for the treatment of human disease” (Shuttle Pharmaceuticals, Inc., priority 2017, dated 2023).
Where “and” joins values, the source holds several entries; their conditions need not be identical. Equal entries are not always repeated. Entries after “also recorded” stand apart in the source; their conditions may differ.

Target: T1, Human recombinant HDAC6 (Homo sapiens, UniProt Q9UBN7)
T1 sequence (Q9UBN7 1-1215): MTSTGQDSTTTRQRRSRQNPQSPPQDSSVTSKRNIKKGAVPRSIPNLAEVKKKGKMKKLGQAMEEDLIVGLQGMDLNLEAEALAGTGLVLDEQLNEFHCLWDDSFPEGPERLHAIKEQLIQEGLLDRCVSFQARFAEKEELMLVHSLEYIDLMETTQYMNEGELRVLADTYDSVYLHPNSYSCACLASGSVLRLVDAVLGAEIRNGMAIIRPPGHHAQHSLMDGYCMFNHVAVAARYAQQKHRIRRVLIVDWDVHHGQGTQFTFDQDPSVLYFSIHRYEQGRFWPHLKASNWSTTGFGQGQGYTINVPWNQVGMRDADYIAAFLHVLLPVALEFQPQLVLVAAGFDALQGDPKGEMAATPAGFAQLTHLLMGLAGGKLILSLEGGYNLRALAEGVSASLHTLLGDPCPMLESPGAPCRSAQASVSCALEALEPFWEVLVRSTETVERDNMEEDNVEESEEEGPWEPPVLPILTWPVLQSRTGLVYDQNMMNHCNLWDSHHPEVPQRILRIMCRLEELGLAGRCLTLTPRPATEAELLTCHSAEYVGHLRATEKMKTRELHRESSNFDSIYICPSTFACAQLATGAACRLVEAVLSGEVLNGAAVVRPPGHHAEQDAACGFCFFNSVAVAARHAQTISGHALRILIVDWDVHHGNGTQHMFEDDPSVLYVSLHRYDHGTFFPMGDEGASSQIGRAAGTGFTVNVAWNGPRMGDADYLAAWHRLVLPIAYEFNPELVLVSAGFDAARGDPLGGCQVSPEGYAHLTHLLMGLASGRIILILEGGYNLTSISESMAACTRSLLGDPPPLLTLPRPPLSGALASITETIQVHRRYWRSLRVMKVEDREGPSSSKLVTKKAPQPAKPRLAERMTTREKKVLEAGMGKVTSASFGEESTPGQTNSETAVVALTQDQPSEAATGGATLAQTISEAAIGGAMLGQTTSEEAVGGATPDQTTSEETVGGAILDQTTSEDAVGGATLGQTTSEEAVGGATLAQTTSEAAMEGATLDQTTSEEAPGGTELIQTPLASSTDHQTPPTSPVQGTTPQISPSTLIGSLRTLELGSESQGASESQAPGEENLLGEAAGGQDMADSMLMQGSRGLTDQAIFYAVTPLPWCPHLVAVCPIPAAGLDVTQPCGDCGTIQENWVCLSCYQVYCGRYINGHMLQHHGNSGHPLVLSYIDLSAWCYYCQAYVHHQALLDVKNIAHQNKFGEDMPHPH
Assay: HDAC isomer assay, Fluor-de-Lys, HDAC6
Type: biochemical
Settings: for EC50: Example 4, FIGS. 5, 6 and 8, read-out: EC50 against HDAC6; for greater potency for HDAC6 as compared to HDAC1: FIG. 14; for selectivity for HDAC6 as compared to pan-HDACs (and HDAC1, HDAC3), in words: FIGS. 1, 7, 8, 18
Procedure: The HDAC isomer (HDAC1, 3, and 6) assays were performed as follows:
Materials: Human recombinant HDAC isomer (HDAC1, HDAC3, and HDAC6); Fluor-de-Lys HDAC substrates; 360 nm excitation 460 nm emission Plate Reader; Disposable pipettes; Pipet-aid; Pipette tips; Micro-pipetter; DMSO; Sterile micro-tubes and conical tubes; and Micro-centrifuge.
Test compounds and control preparation: All test compounds' stock solutions were made in 100% DMSO. Test compound dilutions were made in HDAC Assay buffer with a final concentration of DMSO less than or equal to 1%. Vehicle control was HDAC Assay buffer with 1% DMSO.
The reagents for the assay were prepared as follows:
1. All kit components were defrosted and these, and all dilutions described below, were kept on ice until use.
2. A sufficient amount of HDAC source diluted in Assay Buffer (BML-KI143) was prepared to provide for the assays that were performed (# of wells×15 μl). A 30-fold dilution of the HeLa Extract means that 15p L contains 0.5 μl of the undiluted Extract, an appropriate amount to use per well.
3. Dilution(s) of SAHA and/or Test Inhibitors were prepared in Assay Buffer (BML-KI143). Since 10 μl were used per well, and since the final volume of the HDAC reaction was 50p, these inhibitor dilutions were 5× their final concentration.
4. Dilution(s) of the Fluor de Lys® Substrate (BML-KI104; 50 mM) were prepared in Assay Buffer (BML-KI143) that were 2× the desired final concentration(s). For inhibitor screening, substrate concentrations at or below the Km are recommended. Twenty-five μL were used per well. […] Rapid mixing and dilution into room temperature buffer helped to prevent precipitation at high substrate concentration.
5. Shortly before use (<30 min.), sufficient Fluor de Lys® Developer was prepared for the assays to be performed (50 μl per well). First, the Fluor de Lys® Developer Concentrate was diluted 20-fold (e.g. 50 μl plus 950 μl Assay Buffer) in cold Assay Buffer (BML-K1143). […] The addition of SAHA to the Developer insures that HDAC activity stops when the Developer is added. The Developer was kept on ice until use.
1. Assay buffer, diluted trichostatin A or test inhibitor was added to appropriate wells of the microtiter plate.
2. Diluted HeLa extract or other HDAC sample was added to all wells except those that are to be “No Enzyme Controls.”
3. Diluted Fluor de Lys® Substrate and the samples in the microtiter plate were allowed to equilibrate to assay temperature (e.g. 25 or 37° C.).
4. HDAC reactions were initiated by adding diluted substrate (25 μl) to each well and mixing thoroughly.
5. HDAC reactions were allowed to proceed for desired length of time and then stop them by addition of Fluor de Lys® Developer (50 μl). The plates were incubated at room temperature (25° C.) for 10-15 min.
6. Samples were read in a microtiter-plate reading fluorimeter capable of excitation at a wavelength in the range 350-380 nm and detection of emitted light in the range 440-460 nm.

SMILES	EC50	greater potency for HDAC6 as compared to HDAC1	selectivity for HDAC6 as compared to pan-HDACs (and HDAC1, HDAC3), in words	more selective for HDAC6 as compared to HDAC1 (Example 6, FIG. 18)	more selective for HDAC6 as compared to HDAC3 (Example 6, FIG. 18)	IC50 (Example 6, FIG. 18, 2 mg/mL formulation in 5% DMSO/40% PEG 400/55% PBS, read-out: IC50 against HDAC6 protein)	selectivity for HDAC6 as compared to pan-HDACs (and HDAC1, HDAC3), in words (listed as N^1-(2-(2,6-dioxopiperidin-3-yl)-1-oxoisoindolin-4-yl)-N^8-hydroxyoctanediamide)
O=C(CCCCCCC(=O)NC1CCC(=O)NC1=O)NO (stereo not shown) [SP-2-59, N^1-(2,6-dioxopiperidin-3-yl)-N^8-hydroxyoctanediamide]	52 nM and 68 nM	83 fold	substantial preference and selectivity for HDAC6	–	–	–	–
O=C(CCCCCCC(=O)Nc1cccc2c1CN(C1CCC(=O)NC1=O)C2=O)NO (stereo not shown) [SP-2-93, N^1-(2-(2,6-dioxopiperidin-3-yl)-1-oxoisoindolin-4-yl)-N^8-hydroxyoctanediamide]	6.2 nM	258 fold	substantial preference and selectivity for HDAC6; also recorded: highly selective for HDAC 6	about 26 times	about 51 times	60 nM	surprising selective for HDAC6
